These results are taken from patent US20100311741A1, “Bicyclosulfonyl Acid (BCSA) Compounds and Their Use as Therapeutic Agents” (INHIBOX LTD., priority 2007, published 2010).

The target in one data set is T1, Human recombinant TACE enzyme (Homo sapiens, UniProt P78536).
T1 construct: purchased R and D Systems, Abingdon, UK 930-ADB
T1 sequence (P78536 215-671 limits assumed): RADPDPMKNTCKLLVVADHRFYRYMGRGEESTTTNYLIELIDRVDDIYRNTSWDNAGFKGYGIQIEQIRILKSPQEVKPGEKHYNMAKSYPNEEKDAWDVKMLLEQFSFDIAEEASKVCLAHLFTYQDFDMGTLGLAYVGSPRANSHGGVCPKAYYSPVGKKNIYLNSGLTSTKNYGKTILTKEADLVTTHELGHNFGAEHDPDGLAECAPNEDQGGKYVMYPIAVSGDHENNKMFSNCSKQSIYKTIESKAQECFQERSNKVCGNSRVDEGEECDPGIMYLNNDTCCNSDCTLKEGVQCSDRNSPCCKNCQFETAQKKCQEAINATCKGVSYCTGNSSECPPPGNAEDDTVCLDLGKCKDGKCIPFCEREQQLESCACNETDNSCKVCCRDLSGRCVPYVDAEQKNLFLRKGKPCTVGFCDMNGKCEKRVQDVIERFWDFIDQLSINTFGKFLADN
The data set is described as follows: TACE assay (fluorescent peptide substrate). Particulars: 3.5 h; single concentration @2 (μM); read-out: Av. TACE Inhibition, % @2. The class given is biochemical. The procedure:
The activity of the compounds as TACE inhibitors was determined using a commercially available peptide substrate (M-2255, Bachem UK Ltd, St. Helens, UK) and recombinant TACE enzyme (930-ADB, R and D Systems, Abingdon, UK). Human recombinant TACE enzyme (5 ng/30 μL) was incubated for 3.5 hour at 37° C. in assay buffer (25 mM Tris.HCl, 2.5 μM ZnCl2, 0.005% Brij 35, pH 8.0) with 5 μM substrate in the presence of test compound (TACE inhibitor). The extent of TACE activity was determined by measurement of the fluorescence (excitation 355 nm, emission 460 nm).
(§1) Percent activity (% activity) for each test compound was calculated as:
(§2) % activity={(S^C−B)/(S^o−B)}×100
(§3) wherein S^C denotes signal measured in the presence of enzyme and the compound being tested, S^o denotes signal measured in the presence of enzyme but in the absence of the compound being tested, and B denotes the background signal measured in the absence of both enzyme and compound being tested. The IC50 corresponds to the concentration which achieves 50% activity.
In general, inhibition refers to the relative decrease from the control value, in per cent. As to `O=C(CC1c2ccc(Br)cc2S(=O)(=O)N1c1ccccc1)NO` (centres unmarked) [IX-074], the inhibition at 2 µM was 10%.

With `COc1cc(OC)c2c(c1)C(CC(=O)NO)N(c1ccccc1)S2(=O)=O` (centres unmarked) [IX-072], the inhibition at 2 µM amounted to 15%.

Consider `O=C(CC1c2cccc(Cl)c2S(=O)(=O)N1c1ccccc1)NO` (centres unmarked) [IX-088], for which the inhibition at 2 µM is 34%.

As to `O=C(CC1c2ccccc2S(=O)(=O)N1C1CCN(Cc2ccccc2)CC1)NO` (centres unmarked) [IX-044], the inhibition at 2 µM was found to be 0%.

For `O=C(CC1c2ccc(-c3ccccc3)cc2S(=O)(=O)N1c1ccccc1)NO` (centres unmarked) [IX-079], the inhibition at 2 µM worked out at 4%.

Regarding `O=C(CC1c2c(Cl)cc(Cl)cc2S(=O)(=O)N1c1ccccc1)NO` (centres unmarked) [IX-089], the inhibition at 2 µM was found to be 0%.

As to `Cc1ccc2c(c1)S(=O)(=O)N(c1ccccc1)C2CC(=O)NO` (centres unmarked) [IX-073], the inhibition at 2 µM turned out to be 32%.

Take `COc1ccc2c(c1Cl)C(CC(=O)NO)N(c1ccccc1)S2(=O)=O` (centres unmarked) [IX-093]: the inhibition at 2 µM was determined as 29%.

As to `Cc1cc(F)c2c(c1)C(CC(=O)NO)N(c1ccccc1)S2(=O)=O` (centres unmarked) [IX-085], the inhibition at 2 µM was found to be 57%.

As for `O=C(CC1c2ccc(C(F)(F)F)cc2S(=O)(=O)N1c1ccccc1)NO` (centres unmarked) [IX-090], the inhibition at 2 µM is 10%.

Turning to `COc1cccc2c1C(CC(=O)NO)N(c1ccccc1)S2(=O)=O` (centres unmarked) [IX-082], the inhibition at 2 µM came out at 35%.

With `COc1cccc2c1S(=O)(=O)N(c1ccccc1)C2CC(=O)NO` (centres unmarked) [IX-091], the inhibition at 2 µM came to 13%.

`COc1cc(Cl)cc2c1S(=O)(=O)N(c1ccccc1)C2CC(=O)NO` (centres unmarked) [IX-092]: the inhibition at 2 µM worked out at 23%.

Consider `O=C(CC1c2cccc(C(F)(F)F)c2S(=O)(=O)N1c1ccccc1)NO` (centres unmarked) [IX-084], for which the inhibition at 2 µM turned out to be 0%.

Take `COc1cc2c(c(OC)c1OC)S(=O)(=O)N(c1ccccc1)C2CC(=O)NO` (centres unmarked) [IX-071]: the inhibition at 2 µM worked out at 10%.

In the case of `O=C(CC1c2c(ccc(F)c2Cl)S(=O)(=O)N1c1ccccc1)NO` (centres unmarked) [IX-086], the inhibition at 2 µM was 20%.

The same data set, now with this note: 3.5 h; single concentration @100 (μM); read-out: Av. TACE Inhibition, % @100.
In the case of `O=C(CC1c2ccccc2S(=O)(=O)N1c1ccc(N2CCOCC2)cc1)NO` (centres unmarked) [IX-034], the inhibition at 100 µM was determined as 36%.

With `O=C(CC1c2ccccc2S(=O)(=O)N1c1ccc(-c2cnco2)cc1)NO` (centres unmarked) [IX-031], the inhibition at 100 µM was 70%.

Consider `O=C(CC1c2ccccc2S(=O)(=O)N1c1ccc(C(F)(F)F)cc1)NO` (centres unmarked) [IX-019], for which the inhibition at 100 µM was determined as 55%.

`CN(C)CCOc1ccc(N2C(CC(=O)NO)c3ccccc3S2(=O)=O)cc1` (centres unmarked) [IX-051]: the inhibition at 100 µM stood at 81%.

Take `O=C(CCC1c2ccccc2S(=O)(=O)N1c1ccccc1)NO` (centres unmarked) [IX-094]: the inhibition at 100 µM was determined as 26%.

In the case of `O=C(CC1NS(=O)(=O)c2ccccc21)NO` (centres unmarked) [IX-039], the inhibition at 100 µM stood at 28%.

For `COc1ccccc1N1C(CC(=O)NO)c2ccccc2S1(=O)=O` (centres unmarked) [IX-008], the inhibition at 100 µM is 50%.

On to `O=C(CC1c2ccccc2S(=O)(=O)N1c1cccc(OC(F)(F)F)c1)NO` (centres unmarked) [IX-015], for which the inhibition at 100 µM worked out at 54%.

Consider `O=C(CC1c2ccccc2S(=O)(=O)N1c1cccc(Oc2ccccc2)c1)NO` (centres unmarked) [IX-011], for which the inhibition at 100 µM worked out at 86%.

Turning to `O=C(CC1c2ccccc2S(=O)(=O)N1c1ccc(OCCN2CCOCC2)cc1)NO` (centres unmarked) [IX-052], the inhibition at 100 µM came out at 53%.

Regarding `CC#CCOc1ccc(N2C(CC(=O)O)c3ccccc3S2(=O)=O)cc1` (centres unmarked) [IX-100], the inhibition at 100 µM stood at 50%.

On to `O=C(O)CC1c2ccccc2S(=O)(=O)N1c1ccccc1` (centres unmarked) [IX-099], for which the inhibition at 100 µM was determined as 9%.

Take `O=C(CC1c2ccccc2S(=O)(=O)N1c1ccc(-n2cncn2)cc1)NO` (centres unmarked) [IX-030]: the inhibition at 100 µM came to 54%.

Turning to `CC(C)c1ccc(N2C(CC(=O)NO)c3ccccc3S2(=O)=O)cc1` (centres unmarked) [IX-024], the inhibition at 100 µM stood at 50%.

For `O=C(CC1c2ccccc2S(=O)(=O)N1c1cccc(-c2ccccc2)c1)NO` (centres unmarked) [IX-017], the inhibition at 100 µM is 97%.

For the compound `O=C(NO)C1c2ccccc2S(=O)(=O)N1c1ccccc1` (centres unmarked) [IX-095], the inhibition at 100 µM is 38%.

Regarding `CSc1cccc(N2C(CC(=O)NO)c3ccccc3S2(=O)=O)c1` (centres unmarked) [IX-013], the inhibition at 100 µM was 93%.

Consider `O=C(NO)C1c2c(Cl)cccc2S(=O)(=O)N1c1ccccc1` (centres unmarked) [IX-096], for which the inhibition at 100 µM turned out to be 27%.

Consider `CN1C(CC(=O)NO)c2ccccc2S1(=O)=O` (centres unmarked) [IX-040], for which the inhibition at 100 µM worked out at 28%.

For `O=C(CC1c2ccccc2S(=O)(=O)N1c1cccc(C(F)(F)F)c1)NO` (centres unmarked) [IX-014], the inhibition at 100 µM came out at 81%.

For another data set, the system named is HDAC (HeLa cell extract). The data set is described as follows: Selectivity assay: HDAC activity, fluorescent assay (Fluor de Lys). The class given is biochemical. Particulars: single concentration @100 (μM). The procedure:
Alternatively, the activity of the compounds as HDAC inhibitors was determined using a commercially available fluorescent assay kit (Fluor de Lys™, BioMol Research Labs, Inc., Plymouth Meeting, USA). HeLa extract was incubated for 1 hour at 37° C. in assay buffer (25 mM HEPES, 137 mM NaCl, 2.7 mM KCl, 1 mM MgCl2, pH 8.0) with 15 μM acetylated substrate in the presence of test compound (HDAC inhibitor). The extent of deacetylation was determined by the addition of 50 μL of a 1-in-500 dilution of Developer, and subsequent measurement of the fluorescence (excitation 355 nm, emission 460 nm), according to the instructions provided with the kit.
The HeLa cell extract was made from HeLa cells (ATCC Ref. No. CCL-2) by freeze-thawing three times in 60 mM Tris.HCl, pH 8.0, 450 mM NaCl, 30% glycerol. Two cell volumes of extraction buffer were used, and particulate material was centrifuged out (20,800 g, 4° C., 10 minutes). The supernatant extract having deacetylase activity was aliquoted and frozen for storage.
as §1, §2, §3
On to `O=C(CC1c2ccccc2S(=O)(=O)N1c1ccc(Cl)cc1)NO` (centres unmarked) [IX-012], for which the “Av. HDAC Inhibition, % @100” value worked out at 11%@100.

`O=C(CC1c2ccccc2S(=O)(=O)N1c1ccc(OC(F)(F)F)cc1)NO` (centres unmarked) [IX-020]: the “Av. HDAC Inhibition, % @100” value is −2%@100.

As for `O=C(C[C@@H]1c2ccccc2S(=O)(=O)[C@H]1c1ccccc1)NO` [IX-097], the “Av. HDAC Inhibition, % @100” value turned out to be 20%@100.

Take `O=C(C[C@H]1c2ccccc2S(=O)(=O)N1c1ccccc1)NO` [IX-002]: the “Av. HDAC Inhibition, % @100” value turned out to be 43%@100.

Tested on in a further data set: not given
Assay: not given
Conditions: not given
Broadly, the melting point is the temperature of the solid-liquid transition. As for `CC#CCOc1ccc(N2C(CC(=O)O)c3ccccc3S2(=O)=O)cc1` (centres unmarked) [IX-100], the melting point was 160 to 161 °C.

Consider `O=C(O)CC1c2ccccc2S(=O)(=O)N1c1ccccc1` (centres unmarked) [IX-099], for which the melting point was 178 to 179 °C (dec.).

For `Cc1cc(COc2ccc(N3C(CC(=O)NO)c4ccccc4S3(=O)=O)cc2)c2cc(Cl)ccc2n1` (centres unmarked) [Compound (5.59), 2-{2-[4-(6-Chloro-2-methylquinolin-4-ylmethoxy)-phenyl]-1,1-dioxo-2,3-dihydro-1H-benzo[d]isothiazol-3-yl}-N-hydroxyacetamide], the melting point is > 215 °C (dec.).

For `O=C(CC1c2ccccc2S(=O)(=O)N1c1ccc(-c2ccccc2)cc1)NO` (centres unmarked) [Compound (5.23), 2-(2-Biphenyl-4-yl-1,1-dioxo-2,3-dihydro-1H-benzo[d]isothiazol-3-yl)-N-hydroxyacetamide], the melting point was 207 to 208 °C (dec.).

In turn, `O=C(CC1c2ccccc2S(=O)(=O)N1C1CCN(Cc2ccccc2)CC1)NO` (centres unmarked) [Compound (5.42), 2-[2-(1-Benzylpiperidin-4-yl)-1,1-dioxo-2,3-dihydro-1H-benzo[d]isothiazol-3-yl]-N-hydroxyacetamide] gave a melting point of 141 to 143 °C.

Consider `COc1cccc2c1C(CC(=O)NO)N(c1ccccc1)S2(=O)=O` (centres unmarked) [Compound 54.1, 2-(4-Methoxy-1,1-dioxo-2-phenyl-2,3-dihydro-1H-benzo[d]isothiazol-3-yl)-N-hydroxyacetamide], for which the melting point was in the range of 188 to 190 °C.

As to `COc1ccc2c(c1Cl)C(CC(=O)NO)N(c1ccccc1)S2(=O)=O` (centres unmarked) [Compound 54.12, (4-Chloro-5-Methoxy-1,1-dioxo-2-phenyl-2,3-dihydro-1H-benzo[d]isothiazol-3-yl)-N-hydroxyacetamide], the melting point was 184 to 188 °C (dec.).

The compound `CN(C)c1ccc(N2C(CC(=O)NO)c3ccccc3S2(=O)=O)cc1` (centres unmarked) [Compound (5.31), 2-[2-(4-Dimethylaminophenyl)-1,1-dioxo-2,3-dihydro-1H-benzo[d]isothiazol-3-yl]-N-hydroxyacetamide] came in with a melting point of 185 to 186 °C.

Take `O=C(CC1c2ccccc2S(=O)(=O)N1c1ccc(-c2cnco2)cc1)NO` (centres unmarked) [Compound (5.29), 2-[2-(4-Oxazol-5-yl-phenyl)-1,1-dioxo-2,3-dihydro-1H-benzo[d]isothiazol-3-yl]-N-hydroxyacetamide]: the melting point is 138 to 140 °C (dec.).

Consider `CCC#CCOc1ccc(N2C(CC(=O)NO)c3ccccc3S2(=O)=O)cc1` (centres unmarked) [Compound (5.52), 2-[1,1-Dioxo-2-(4-pent-2-ynyloxy-phenyl)-2,3-dihydro-1H-benzo[d]isothiazol-3-yl]-N-hydroxyacetamide], for which the melting point was 135 to 137 °C (dec.).

`O=C(CC1c2ccccc2S(=O)(=O)N1c1ccc(Cl)cc1)NO` (centres unmarked) [Compound (5.10), 2-[2-(4-Chlorophenyl)-1,1-dioxo-2,3-dihydro-1H-benzo[d]isothiazol-3-yl]-N-hydroxyacetamide]: the melting point was 184 to 185 °C.

`CCCCOc1ccc(N2C(CC(=O)NO)c3ccccc3S2(=O)=O)cc1` (centres unmarked) [Compound (5.34), 2-[2-(4-Butoxyphenyl)-1,1-dioxo-2,3-dihydro-1H-benzo[d]isothiazol-3-yl]-N-hydroxyacetamide] displayed a melting point of 165 to 166 °C.

Regarding `Cc1cc(C(C)Oc2ccc(N3C(CC(=O)NO)c4ccccc4S3(=O)=O)cc2)c2ccccc2n1` (centres unmarked) [Compound (5.56), 2-(2-{4-[1-(2-Methylquinolin-4-yl)ethoxy]-phenyl}-1,1-dioxo-2,3-dihydro-1H-benzo[d]isothiazol-3-yl)-N-hydroxyacetamide], the melting point was 200 to 204 °C (dec.).
